Emission maximum data for 16 compounds are collected here from the Deep4Chem optical property database.

The structures appear in SMILES notation.

This data set is described as follows: solvent given as SMILES.

Consider `O=C(c1ccc(N(c2ccccc2)c2ccccc2)cc1)[C@H]1[C@H](c2ccc(F)cc2)C[C@](O)(c2ccccn2)C[C@]1(O)c1ccccn1`, for which the emission maximum is on record as 502 nm (in C1CCOC1); 523 nm (in CC#N); 515 nm (in CCO); 502 nm (in CCOC(C)=O); 524 nm (in CN(C)C=O); 518 nm (in ClCCl). Besides, the emission maximum (in c1ccccc1) is listed as 485 nm.

Under “in Cc1ccccc1”, `Cc1ccc(-n2c(-c3cccc4cc[n-]c34)[nH+]c3c4ccccc4c4ccccc4c32)cc1` gave an emission maximum of 566 nm.

Turning to `CCN(CC)c1ccc2c(-c3ccc(S(=O)(=O)[O-])cc3S(=O)(=O)[O-])c3ccc(=[N+](CC)CC)cc-3oc2c1`, the emission maximum by setting is: (in CC#N) 573 nm; (in CCO) 578 nm; (in CN(C)C=O) 574 nm; (in O) 588 nm.

As to `COc1cc2cc(C#Cc3ccc(/C=C(\C#N)C(=O)O)cc3)c(=O)oc2cc1OC`, the emission maximum (in CC#N) is given as 464 nm.

As to `c1cc2cc(c1)c1ccc3c(c1)c1cc(ccc1[C@]14OCCO[C@]31OCCO4)c1ccc3c(c1)c1cc(ccc1[C@]14OCCO[C@]31OCCO4)c1cccc2c1`, the emission maximum (in ClC(Cl)Cl) is listed as 347 nm.

Turning to `Oc1ccc2ccccc2c1/C=N/C1CCCCC1/N=C/c1c(O)ccc2ccccc12` (configuration not stated), for the setting “in CC#N”, the emission maximum is 471 nm.

In turn, `c1ccc2c(-c3nc4sc5ccccc5c4s3)cccc2c1` returned an emission maximum (in CS(C)=O) of 447 nm.

Regarding `CC[N+](CC)=c1ccc2c(-c3ccccc3C(=O)O)c3oc4cc(N)ccc4c3oc-2c1`, the emission maximum is, setting by setting: (in CCO) 622 nm; (in ClCCl) 617 nm; (in O) 634 nm.

`COc1ccc(-c2nc(-c3ccc(C)cc3)c3ccccn23)cc1` gave an emission maximum (in ClC(Cl)Cl) of 521 nm.

`COc1ccc2cc(C#CC3=C4CCc5ccccc5C4=[O+][B-](F)(F)O3)ccc2c1` came in with an emission maximum (in ClCCl) of 566 nm.

In the case of `O=C1/C(=C2\Sc3ccccc3C2=O)Sc2ccccc21`, the emission maximum (in C1COCCO1) is given as 590 nm; the emission maximum (in CN(C)C=O) is recorded as 607 nm; the emission maximum (in CO) was 624 nm; the emission maximum (in CS(C)=O) came out at 614 nm; the emission maximum (in c1ccccc1) stood at 598 nm.

`N#CC1=CC=CC(C#N)=P1(c1ccccc1)c1ccccc1` had an emission maximum (in ClC(Cl)Cl) of 491 nm.

In turn, `N#Cc1c2oc3ccccc3oc2c(C#N)c2oc3ccccc3oc12` came in with an emission maximum (in ClC(Cl)Cl) of 475 nm.

As to `CC(=O)c1ccc(C#Cc2ccc(-c3cc(N(C)C)c4ccccc4c3)cc2)cc1`, where the note is “in ClCCl”, the emission maximum stood at 458 nm.

For the compound `COc1ccc(/C=C/c2ccncn2)cc1`, the emission maximum (in ClCCl) is 418 nm.

On to `CC/[NH+]=c1\cc2oc3cc(NCCC(=O)NC(CCC(=O)OC)C(=O)OC)c4ccccc4c3nc-2cc1C` (configuration not stated), for which the emission maximum runs as follows: (in CCO) 644 nm; (in O) 652 nm.
